Where a name gives a salt, the structure may show the parent alone.
Experiments:
[1] = target: T1, B1R receptor of the rat (bradykinin 1 receptor) (Rattus norvegicus, UniProt P97583); test: FLIPR Ca2+ assay (Fluo-4) on CHO K1 cells stably transfected with the B1R gene of the rat; % activation and % inhibition at 10 μM; format: cell-based; details: CHO-K1, test substance 10 μM; CHO K1 rB1R cells; Ca2+ inflow after 100 nM Des-Arg9-bradykinin; read-out: B1R antagonism, rat [10 μM] % inhibition
T1 construct: host or cells: CHO K1 cells (rB1R cells)
T1 sequence (P97583 1-337): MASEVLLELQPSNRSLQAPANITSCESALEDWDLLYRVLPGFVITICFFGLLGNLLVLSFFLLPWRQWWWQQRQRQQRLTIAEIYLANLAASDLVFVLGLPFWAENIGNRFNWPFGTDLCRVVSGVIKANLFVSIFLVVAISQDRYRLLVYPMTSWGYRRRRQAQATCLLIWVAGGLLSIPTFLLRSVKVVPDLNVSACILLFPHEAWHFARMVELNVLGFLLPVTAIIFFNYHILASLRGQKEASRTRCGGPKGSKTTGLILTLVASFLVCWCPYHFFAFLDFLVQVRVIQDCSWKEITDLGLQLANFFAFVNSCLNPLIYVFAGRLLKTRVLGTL
Method in brief: (§1)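 Fluo-4 Ca2+ flux on FLIPR in stable hB1R or rB1R CHO K1 lines, two additions. Agonism: 10 µM compound versus 0.5 nM Lys-Des-Arg9-BK (human) or 100 nM Des-Arg9-BK (rat); antagonism: same agonists applied 10 min later, suppression expressed against maximum achievable inhibition.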

[2] = target: T2, human B1R receptor (bradykinin 1 receptor) (Homo sapiens, UniProt P46663); test: FLIPR Ca2+ assay (Fluo-4) on CHO K1 cells stably transfected with the human B1R gene; % activation and % inhibition at 10 μM; format: cell-based; details: CHO-K1, test substance 10 μM; CHO K1 hB1R cells; Ca2+ inflow after 0.5 nM Lys-Des-Arg9-bradykinin; read-out: B1R antagonism, human [10 μM] % inhibition
T2 construct: host or cells: CHO K1 cells (hB1R cells)
T2 sequence (P46663 1-353): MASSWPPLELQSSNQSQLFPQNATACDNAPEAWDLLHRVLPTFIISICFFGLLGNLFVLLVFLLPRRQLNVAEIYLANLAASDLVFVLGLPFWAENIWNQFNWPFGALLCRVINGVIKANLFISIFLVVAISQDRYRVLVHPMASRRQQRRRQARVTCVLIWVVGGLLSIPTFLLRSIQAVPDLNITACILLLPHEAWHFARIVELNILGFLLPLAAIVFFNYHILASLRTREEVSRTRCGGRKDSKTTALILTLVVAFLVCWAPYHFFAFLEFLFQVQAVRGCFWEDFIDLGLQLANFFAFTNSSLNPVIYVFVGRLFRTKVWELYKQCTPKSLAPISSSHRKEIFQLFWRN
Method in brief: as §1

| inhibition at 10 µM [1] | inhibition at 10 µM [2] | Compound |
| --- | --- | --- |
| 69.1% | 71.8% | Cc1cc(S(=O)(=O)N(C)CCOCC(=O)N2CCC(O)(Cc3ccccc3)CC2)c(C)cc1Cl [Example 153, N-(2-(2-(4-benzyl-4-hydroxypiperidin-1-yl)-2-oxoethoxy)ethyl)-4-chloro-N,2,5-trimethylphenylsulfonamide] |
| 43.2% | 35.4% | Cc1ccc(F)cc1S(=O)(=O)N(C)CCOCC(=O)N1CCC(O)(c2ccccn2)CC1 [Example 97, 5-fluoro-N-{2-[2-(4′-hydroxy-3′,4′,5′,6′-tetrahydro-2′H-[2,4′]bipyridinyl-1′-yl)-2-oxo-ethoxy]-ethyl}-2,N-dimethyl-phenylsulfonamide] |
| 93.9% | 100% | CN(CCOCC(=O)N1CCC(O)(c2ccccn2)CC1)S(=O)(=O)c1c(Cl)cc(Cl)cc1Cl [Example 6, 2,4,6-trichloro-N-{2-[2-(4′-hydroxy-3′,4′,5′,6′-tetrahydro-2′H-[2,4′]bipyridinyl-1′-yl)-2-oxo-ethoxy]-ethyl}-N-methyl-phenylsulfonamide] |
| 100% | 104% | COc1cc(C)c(S(=O)(=O)N(C)CCOCC(=O)N2CCC(O)(c3cccc(F)c3)CC2)c(C)c1 [Example 141, N-(2-(2-(4-(3-fluorophenyl)-4-hydroxypiperidin-1-yl)-2-oxoethoxy)ethyl)-4-methoxy-N,2,6-trimethylphenylsulfonamide] |
| 99.2% | 94.2% | COc1cc(C)c(S(=O)(=O)N(CCOCC(=O)N2CCC(O)(Cc3ccccc3)CC2)CC2CC2)c(C)c1C [Example 207, N-(2-(2-(4-benzyl-4-hydroxypiperidin-1-yl)-2-oxoethoxy)ethyl)-N-(cyclopropylmethyl)-4-methoxy-2,3,6-trimethylphenylsulfonamide] |
| 100% | 99.1% | Cc1cc(S(=O)(=O)N(C)CCOCC(=O)N2CCC(O)(c3cccnc3)CC2)c(C)cc1Cl [Example 149, 4-chloro-N-(2-(2-(4-hydroxy-4-(pyridin-3-yl)piperidin-1-yl)-2-oxoethoxy)ethyl)-N,2,5-trimethylphenylsulfonamide] |
| 100% | 105% | COc1cc(C)c(S(=O)(=O)N(CCOCC(=O)N2CCC(O)(c3cccc(C(F)(F)F)c3)CC2)CC(C)C)c(C)c1C [Example 212, N-(2-(2-(4-hydroxy-4-(3-(trifluoromethyl)phenyl)piperidin-1-yl)-2-oxoethoxy)ethyl)-N-isobutyl-4-methoxy-2,3,6-trimethylphenylsulfonamide] |
| 98.8% | 99.1% | COc1cc(C)c(S(=O)(=O)N(CCOCC(=O)N2CCC(O)(c3cccs3)CC2)CC2CC2)c(C)c1C [Example 268, N-(cyclopropylmethyl)-N-(2-(2-(4-hydroxy-4-(thiophen-2-yl)piperidin-1-yl)-2-oxoethoxy)ethyl)-4-methoxy-2,3,6-trimethylphenylsulfonamide] |

Continued, compound first:

| Compound | inhibition at 10 µM [1] | inhibition at 10 µM [2] |
| --- | --- | --- |
| Cc1cc(S(=O)(=O)N2CCCCC2COCC(=O)N2CCC(O)(c3ccccc3)CC2)c(C)cc1Cl (stereo not shown) [Example 158, 2-((1-(4-chloro-2,5-dimethylphenylsulfonyl)piperidin-2-yl)methoxy)-1-(4-hydroxy-4-phenylpiperidin-1-yl)ethanone] | 105% | 44.9% |
| O=C(COCC1CCCN1S(=O)(=O)c1cc(Cl)sc1Cl)N1CCC(O)(c2ccccc2)CC1 (stereo not shown) [Example 225, 2-((1-(2,5-dichlorothiophen-3-ylsulfonyl)pyrrolidin-2-yl)methoxy)-1-(4-hydroxy-4-phenylpiperidin-1-yl)ethanone] | 88.5% | 43.1% |
| O=C(COCC1Cc2ccccc2N1S(=O)(=O)c1ccc(Cl)c(Cl)c1)N1CCC(O)(Cc2ccccc2)CC1 (stereo not shown) [Example 99, 1-(4-benzyl-4-hydroxy-piperidin-1-yl)-2-[1-(3,4-dichloro-phenylsulfonyl)-2,3-dihydro-1H-indol-2-ylmethoxy]-ethanone] | -12.4% | -22.9% |
| O=C(COCC1Cc2ccccc2CN1S(=O)(=O)c1ccc(Cl)cc1Cl)N1CCC(O)(Cc2ccccc2)CC1 (stereo not shown) [Example 81, 1-(4-benzyl-4-hydroxy-piperidin-1-yl)-2-[2-(2,4-dichloro-phenylsulfonyl)-1,2,3,4-tetrahydro-isoquinolin-3-ylmethoxy]-ethanone] | 62.8% | 32.9% |
| O=C(COCC1CCCN1S(=O)(=O)c1cc(Cl)sc1Cl)N1CCC(O)(c2cccs2)CC1 (stereo not shown) [Example 266, 2-((1-(2,5-dichlorothiophen-3-ylsulfonyl)pyrrolidin-2-yl)methoxy)-1-(4-hydroxy-4-(thiophen-2-yl)piperidin-1-yl)ethanone] | 78.6% | 21.9% |
| COc1cc(C)c(S(=O)(=O)N2CCCC2COCC(=O)N2CCC(O)(c3cccs3)CC2)c(C)c1 (stereo not shown) [Example 239, 1-(4-hydroxy-4-(thiophen-2-yl)piperidin-1-yl)-2-((1-(4-methoxy-2,6-dimethylphenylsulfonyl)pyrrolidin-2-yl)methoxy)ethanone] | 98.9% | 105% |
| O=C(COCC1CCCN(S(=O)(=O)c2c(Cl)cc(Cl)cc2Cl)C1)N1CCC(O)(c2ccc(Cl)cc2)CC1 (stereo not shown) [Example 254, 1-(4-(4-chlorophenyl)-4-hydroxypiperidin-1-yl)-2-((1-(2,4,6-trichlorophenylsulfonyl)piperidin-3-yl)methoxy)ethanone] | 36.8% | 62.5% |
| O=C(COCC1Cc2ccccc2CN1S(=O)(=O)c1ccc(Cl)cc1Cl)N1CCC(O)(c2cccnc2)CC1 (stereo not shown) [Example 131, 2-((2-(2,4-dichlorophenylsulfonyl)-1,2,3,4-tetrahydroisoquinolin-3-yl)methoxy)-1-(4-hydroxy-4-(pyridin-3-yl)piperidin-1-yl)ethanone hydrochloride] | 100% | 102% |
| O=C(COC1CCN(S(=O)(=O)c2c(Cl)cc(Cl)cc2Cl)C1)N1CCC(O)(c2ccccn2)CC1 (stereo not shown) [Example 98, 1-(4′-hydroxy-3′,4′,5′,6′-tetrahydro-2′H-[2,4′]bipyridinyl-1′-yl)-2-[1-(2,4,6-trichloro-phenylsulfonyl)-pyrrolidin-3-yloxy]-ethanone] | 31.9% | 29.1% |
| CN(CCCC(=O)N1CCC(O)(c2cccnc2)CC1)S(=O)(=O)c1ccc2ccccc2c1 [Example 115, N-(4-(4-hydroxy-4-(pyridin-3-yl)piperidin-1-yl)-4-oxobutyl)-N-methylnaphthalene-2-sulfonamide] | 44.3% | 55.2% |
| O=C(COCC1Cc2ccccc2N1S(=O)(=O)c1ccc(Cl)c(Cl)c1)N1CCC(O)(c2cccnc2)CC1 (stereo not shown) [Example 100, 2-[1-(3,4-dichloro-phenylsulfonyl)-2,3-dihydro-1H-indol-2-ylmethoxy]-1-(4′-hydroxy-3′,4′,5′,6′-tetrahydro-2′H-[3,4′]bipyridinyl-1′-yl)-ethanone] | -0.67% | -6.26% |
| COc1cc(C)c(S(=O)(=O)N2CCCC2COCC(=O)N2CCC(O)(Cc3ccccc3)CC2)c(C)c1 (stereo not shown) [Example 216, 1-(4-benzyl-4-hydroxypiperidin-1-yl)-2-((1-(4-methoxy-2,6-dimethylphenylsulfonyl)pyrrolidin-2-yl)methoxy)ethanone] | 100% | 102% |
| O=C(COCC1CCCCN1S(=O)(=O)c1csc2ccccc12)N1CCC(O)(Cc2ccccc2)CC1 (stereo not shown) [Example 274, 2-((1-(benzo[b]thiophen-3-ylsulfonyl)piperidin-2-yl)methoxy)-1-(4-benzyl-4-hydroxypiperidin-1-yl)ethanone] | 76% | 96.4% |
| O=C(COC1CCCCC1N(Cc1ccccc1)S(=O)(=O)c1ccc(Cl)c(Cl)c1)N1CCC(O)(c2ccccn2)CC1 (stereo not shown) [Example 95, N-benzyl-3,4-dichloro-N-{2-[2-(4′-hydroxy-3′,4′,5′,6′-tetrahydro-2′H-[2,4′]bipyridinyl-1′-yl)-2-oxo-ethoxy]-cyclohexyl}-phenylsulfonamide] | -0.33% | 8.92% |
| COc1cc(C)c(S(=O)(=O)N2CCCCC2COCC(=O)N2CCC(O)(c3cccnc3)CC2)c(C)c1 (stereo not shown) [Example 127, 1-(4-hydroxy-4-(pyridin-3-yl)piperidin-1-yl)-2-((1-(4-methoxy-2,6-dimethylphenylsulfonyl)piperidin-2-yl)methoxy)ethanone] | 101% | 104% |

From patent US8580965B2, “Substituted sulfonamide compounds” (Gruenenthal GmbH, priority 2006, dated 2013)
